Source: patent publication US20050282159A1, “Rpob gene of streptomyces, primer specific to streptomyces, and identification method of streptomyces having rifampin resistance or sensitivity by using the same” (priority 2001, published 2005)

Columns and labels:
[1] = system: S. achromogenes KCTC 1740; assay: rifampin-sensitive test on Bennet solid media; format: cell-based; parameters: key: “(+)” indicates a genotype with rifampin-resistance; “(−)” indicates a genotype with rifampin-susceptibility; settings: TCG (TCC) genotype, 25 ug/ml rifampin, 72 hr
Experimental: (§1) The 47 strains were respectively cultured at 28° C. for 72 hr in Bennet liquid media. The culture solution was then inoculated on Bennet solid media (yeast extract 1 g/L, Beef extract 1 g/L, Tryptone 2 g/L, Glycerol 10 g/L, Agar 15 g/L) containing 25 ug/ml rifampin, and after incubation for 72 hr, rifampin-resistance was tested.

[2] = system: S. alanosinicus KCTC 9683; assay: rifampin-sensitive test on Bennet solid media; format: cell-based; parameters: key: “(+)” indicates a genotype with rifampin-resistance; “(−)” indicates a genotype with rifampin-susceptibility; settings: AAC genotype, 25 ug/ml rifampin, 72 hr
Experimental: as §1

[3] = system: S. albireticuli KCTC 9685; assay: rifampin-sensitive test on Bennet solid media; format: cell-based; parameters: key: “(+)” indicates a genotype with rifampin-resistance; “(−)” indicates a genotype with rifampin-susceptibility; settings: TCG (TCC) genotype, 25 ug/ml rifampin, 72 hr
Experimental: as §1

[4] = system: S. alboniger KCTC 9014; assay: rifampin-sensitive test on Bennet solid media; format: cell-based; parameters: key: “(+)” indicates a genotype with rifampin-resistance; “(−)” indicates a genotype with rifampin-susceptibility; settings: TCG (TCC) genotype, 25 ug/ml rifampin, 72 hr
Experimental: as §1

[5] = system: S. albus KCTC 1082; assay: rifampin-sensitive test on Bennet solid media; format: cell-based; parameters: key: “(+)” indicates a genotype with rifampin-resistance; “(−)” indicates a genotype with rifampin-susceptibility; settings: AAC genotype, 25 ug/ml rifampin, 72 hr
Experimental: as §1

[6] = system: S. chartreuses KCTC 9704; assay: rifampin-sensitive test on Bennet solid media; format: cell-based; parameters: key: “(+)” indicates a genotype with rifampin-resistance; “(−)” indicates a genotype with rifampin-susceptibility; settings: TCG (TCC) genotype, 25 ug/ml rifampin, 72 hr
Experimental: as §1

[7] = system: S. cinereoruber KCTC 9707; assay: rifampin-sensitive test on Bennet solid media; format: cell-based; parameters: key: “(+)” indicates a genotype with rifampin-resistance; “(−)” indicates a genotype with rifampin-susceptibility; settings: TCG (TCC) genotype, 25 ug/ml rifampin, 72 hr
Experimental: as §1

[8] = system: S. durhamensis KCTC 9723; assay: rifampin-sensitive test on Bennet solid media; format: cell-based; parameters: key: “(+)” indicates a genotype with rifampin-resistance; “(−)” indicates a genotype with rifampin-susceptibility; settings: AAC genotype, 25 ug/ml rifampin, 72 hr
Experimental: as §1

[9] = system: S. anthocyanicus KCTC 9755; assay: rifampin genotype by rpoB nucleotide sequence analysis; settings: AAC genotype
Experimental: (§2) The primer sets of SEQ ID NOs: 1 and 2 were used to amplify rpoB genes of 60 strains, and nucleotides of the […] products were analyzed with an automatic sequencer. SRPOF1 as a forward primer and SRPOR1 as a backward primer were used.
(§3) FIG. 8 is an electropherogram obtained by amplifying 306-bp rpoB gene fragment with the SRPOF1 and SRPOR1 primer set and automatically sequencing with an SRPOF1 primer.

[10] = system: S. atroolvaceous KCTC 9017; assay: as above
Experimental: as §2, §3

[11] = system: S. humidus KCCM 40647; assay: as above
Experimental: as §2, §3

[12] = system: S. albaduncus KCTC 1741; settings: AAC genotype
Experimental: as §2

[13] = system: S. althioticus KCTC 9752; settings: AAC genotype
Experimental: as §2

[14] = system: S. antibioticus KCTC 1137; settings: TCG (TCC) genotype
Experimental: as §2

[15] = system: S. californicus KCCM 40605; settings: TCG (TCC) genotype
Experimental: as §2

[16] = system: S. carpinensis KCTC 9128; settings: TCG (TCC) genotype
Experimental: as §2

[17] = system: S. cellulose KCTC 9703; settings: AAC genotype
Experimental: as §2

[18] = system: S. chromogenes KCCM 40727; settings: TCG (TCC) genotype
Experimental: as §2

[19] = system: S. cinnamoneus KCCM 40572; settings: TCG (TCC) genotype
Experimental: as §2

[20] = system: S. coerulescens KCCM 40508; settings: TCG (TCC) genotype
Experimental: as §2

[21] = system: S. flavovirens KCCM 40165; settings: TCG (TCC) genotype
Experimental: as §2

[22] = system: S. gougeroti KCCM 40681; settings: TCG (TCC) genotype
Experimental: as §2

[23] = system: S. griseoflavus KCCM 12624; settings: AAC genotype
Experimental: as §2

[24] = system: S. griseostramineus KCCM 40526; settings: TCG (TCC) genotype
Experimental: as §2

[25] = system: S. halstedii KCCM 40613; settings: TCG (TCC) genotype
Experimental: as §2

[26] = system: S. indigoferus KCCM 40495; settings: TCG (TCC) genotype
Experimental: as §2

[27] = system: S. lividans KCTC 1154; settings: AAC genotype
Experimental: as §2

[28] = system: S. murinus KCTC 9492; settings: AAC genotype
Experimental: as §2

[29] = system: S. piosus KCCM 40480; settings: AAC genotype
Experimental: as §2

[30] = system: S. rubiginosus KCTC 9042; settings: AAC genotype
Experimental: as §2

[31] = system: S. tendae KCCM 40105; settings: AAC genotype
Experimental: as §2

[32] = system: S. anabdii KCTC 9687; assay: rifampin genotype by rpoB nucleotide sequence analysis; settings: TCG (TCC) genotype
Experimental: as §2

[33] = system: S. caseius KCCM 40740; assay: as above; settings: TCG (TCC) genotype
Experimental: as §2

[34] = system: S. coralus KCCM 40642; assay: as above; settings: TCG (TCC) genotype
Experimental: as §2

With CO[C@H]1/C=C/O[C@@]2(C)Oc3c(C)c(O)c4c(O)c(c(/C=N/N5CCN(C)CC5)c(O)c4c3C2=O)NC(=O)/C(C)=C\C=C\[C@H](C)[C@H](O)[C@@H](C)[C@@H](O)[C@@H](C)[C@H](OC(C)=O)[C@@H]1C [rifampin] the “genotype (rifampin-resistance or susceptibility)” value [1] was “−”, the “genotype (rifampin-resistance or susceptibility)” value [2] was “+” and the “genotype (rifampin-resistance or susceptibility)” value [3] was “−”. For the same compound, the “genotype (rifampin-resistance or susceptibility)” value [4] was “−”, the “genotype (rifampin-resistance or susceptibility)” value [5] was “+” and the “genotype (rifampin-resistance or susceptibility)” value [6] was “−”. The “genotype (rifampin-resistance or susceptibility)” value [7] was “−”, the “genotype (rifampin-resistance or susceptibility)” value [8] was “+” and the “rifampin resistance or sensitivity of the strain” value ([9]; S. anthocyanicus (KCTC 9755), identical to the known sensitivity results) was “rifampin-resistant strain”. The “genotype (rifampin-resistant or -sensitive strain)” value ([9]; S. anthocyanicus KCTC 9755) was “+”, the “rifampin resistance or sensitivity of the strain” value ([10]; S. atroolvaceous (KCTC9017), TCG genotype, identical to the known sensitivity results) was “rifampin-sensitive strains” and the “genotype (rifampin-resistant or -sensitive strain)” value ([10]; S. atroolvaceous KCTC 9017, TCG (TCC) genotype) was “−”. For the same compound, the “rifampin resistance or sensitivity of the strain” value ([11]; S. humidus (KCCM 40647), TCG genotype, identical to the known sensitivity results) was “rifampin-sensitive strains”, the “genotype (rifampin-resistant or -sensitive strain)” value ([11]; S. humidus KCCM 40647, TCG (TCC) genotype) was “−” and the “genotype (rifampin-resistant or -sensitive strain)” value [12] was “+”. The “genotype (rifampin-resistant or -sensitive strain)” value [13] was “+”, the “genotype (rifampin-resistant or -sensitive strain)” value [14] was “−” and the “genotype (rifampin-resistant or -sensitive strain)” value [15] was “−”. The “genotype (rifampin-resistant or -sensitive strain)” value [16] was “−”, the “genotype (rifampin-resistant or -sensitive strain)” value [17] was “+” and the “genotype (rifampin-resistant or -sensitive strain)” value [18] was “−”. The “genotype (rifampin-resistant or -sensitive strain)” value [19] was “−”, the “genotype (rifampin-resistant or -sensitive strain)” value [20] was “−” and the “genotype (rifampin-resistant or -sensitive strain)” value [21] was “−”. For the same compound, the “genotype (rifampin-resistant or -sensitive strain)” value [22] was “−”, the “genotype (rifampin-resistant or -sensitive strain)” value [23] was “+” and the “genotype (rifampin-resistant or -sensitive strain)” value [24] was “−”. For the same compound, the “genotype (rifampin-resistant or -sensitive strain)” value [25] was “−”, the “genotype (rifampin-resistant or -sensitive strain)” value [26] was “−” and the “genotype (rifampin-resistant or -sensitive strain)” value [27] was “+”. The “genotype (rifampin-resistant or -sensitive strain)” value [28] was “+”, the “genotype (rifampin-resistant or -sensitive strain)” value [29] was “+” and the “genotype (rifampin-resistant or -sensitive strain)” value [30] was “+”. For the same compound, the “genotype (rifampin-resistant or -sensitive strain)” value [31] was “+”, the “genotype (rifampin-resistant or -sensitive strain)” value [32] was “−” and the “genotype (rifampin-resistant or -sensitive strain)” value [33] was “−”. For the same compound, the “genotype (rifampin-resistant or -sensitive strain)” value [34] was “−”.
